Data reported in ChEMBL document CHEMBL1155237, “Selective inhibitors of the mutant B-Raf pathway: discovery of a potent and orally bioavailable aminoisoquinoline” (J Med Chem, 2009).

Legend:
[1] = molecular target: Leukocyte tyrosine kinase receptor (Homo sapiens) (UniProt P29376); experiment: Inhibition of LTK assessed as enzyme activity at 1 uM relative to untreated control; design: scale not given: the % may be the effect or the level left
[2] = molecular target: Cyclin-dependent kinase 11A (Homo sapiens) (UniProt Q9UQ88); experiment: Inhibition of CDC2L2 assessed as enzyme activity at 1 uM relative to untreated control; design: scale not given: the % may be the effect or the level left
[3] = molecular target: Cyclin-dependent kinase 19 (Homo sapiens) (UniProt Q9BWU1); experiment: Inhibition of CDK11 assessed as enzyme activity at 1 uM relative to untreated control; design: scale not given: the % may be the effect or the level left
[4] = molecular target: cGMP-dependent protein kinase 2 (Homo sapiens) (UniProt Q13237); experiment: Inhibition of PRKG2 assessed as enzyme activity at 1 uM relative to untreated control; design: scale not given: the % may be the effect or the level left
[5] = molecular target: Serine/threonine-protein kinase RIO1 (Homo sapiens) (UniProt Q9BRS2); experiment: Inhibition of RIOK1 assessed as enzyme activity at 1 uM relative to untreated control; design: scale not given: the % may be the effect or the level left
[6] = molecular target: Mitogen-activated protein kinase 3 (Homo sapiens) (UniProt P27361); experiment: Inhibition of ERK1 assessed as enzyme activity at 1 uM relative to untreated control; design: scale not given: the % may be the effect or the level left
[7] = Inhibition of FGFR3 G697C mutant assessed as enzyme activity at 1 uM relative to untreated control; design: scale not given: the % may be the effect or the level left
[8] = molecular target: Tyrosine-protein kinase ITK/TSK (Homo sapiens) (UniProt Q08881); experiment: Inhibition of ITK assessed as enzyme activity at 1 uM relative to untreated control; design: scale not given: the % may be the effect or the level left
[9] = molecular target: Casein kinase II subunit alpha' (Homo sapiens) (UniProt P19784); experiment: Inhibition of CSNK2A2 assessed as enzyme activity at 1 uM relative to untreated control; design: scale not given: the % may be the effect or the level left
[10] = AUC (0 to 24 hrs) in human A375 SQ2 cells xenografted po dosed CD1 mouse administered once daily for 14 days; assay type: ADME, organism-based, A-375; design: time < 24 hr, route oral; conditions: in vivo
[11] = molecular target: Serine/threonine-protein kinase TNNI3K (Homo sapiens) (UniProt Q59H18); experiment: Inhibition of TNNI3K assessed as enzyme activity at 1 uM relative to untreated control; design: scale not given: the % may be the effect or the level left

Tyrosine-protein kinase ITK/TSK (Homo sapiens), sequence (Q08881 whole entry): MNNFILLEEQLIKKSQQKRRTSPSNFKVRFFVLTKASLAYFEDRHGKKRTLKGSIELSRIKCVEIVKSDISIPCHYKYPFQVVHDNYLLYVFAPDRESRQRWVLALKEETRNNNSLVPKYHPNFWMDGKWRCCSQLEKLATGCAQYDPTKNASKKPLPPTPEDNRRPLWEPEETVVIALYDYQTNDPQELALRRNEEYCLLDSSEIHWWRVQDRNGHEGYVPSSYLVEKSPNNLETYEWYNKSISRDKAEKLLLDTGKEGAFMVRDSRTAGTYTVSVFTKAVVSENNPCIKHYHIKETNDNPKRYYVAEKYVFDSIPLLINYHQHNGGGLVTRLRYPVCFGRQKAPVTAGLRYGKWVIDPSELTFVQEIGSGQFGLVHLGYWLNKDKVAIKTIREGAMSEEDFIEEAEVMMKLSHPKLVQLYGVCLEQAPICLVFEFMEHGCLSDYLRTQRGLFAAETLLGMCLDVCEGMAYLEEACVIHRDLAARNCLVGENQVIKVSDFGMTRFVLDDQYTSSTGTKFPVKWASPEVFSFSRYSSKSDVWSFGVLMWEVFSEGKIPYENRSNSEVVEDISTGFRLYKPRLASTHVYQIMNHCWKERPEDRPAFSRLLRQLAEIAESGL
Serine/threonine-protein kinase RIO1 (Homo sapiens), sequence (Q9BRS2 whole entry): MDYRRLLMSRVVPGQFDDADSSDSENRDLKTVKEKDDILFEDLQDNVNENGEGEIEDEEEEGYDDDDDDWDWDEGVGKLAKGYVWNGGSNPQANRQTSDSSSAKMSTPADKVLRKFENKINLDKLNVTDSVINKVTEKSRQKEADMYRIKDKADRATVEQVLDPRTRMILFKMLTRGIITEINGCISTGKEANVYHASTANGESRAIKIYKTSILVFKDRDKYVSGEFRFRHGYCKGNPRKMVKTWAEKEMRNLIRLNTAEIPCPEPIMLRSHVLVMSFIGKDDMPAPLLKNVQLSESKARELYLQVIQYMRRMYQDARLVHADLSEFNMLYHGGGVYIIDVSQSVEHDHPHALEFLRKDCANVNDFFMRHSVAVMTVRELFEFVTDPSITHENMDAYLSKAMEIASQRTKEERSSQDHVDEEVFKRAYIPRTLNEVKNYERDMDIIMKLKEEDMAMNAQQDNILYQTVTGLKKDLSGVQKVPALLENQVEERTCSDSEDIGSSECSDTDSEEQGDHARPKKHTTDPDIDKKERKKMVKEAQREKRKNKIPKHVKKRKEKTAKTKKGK
Leukocyte tyrosine kinase receptor (Homo sapiens), sequence (P29376 whole entry): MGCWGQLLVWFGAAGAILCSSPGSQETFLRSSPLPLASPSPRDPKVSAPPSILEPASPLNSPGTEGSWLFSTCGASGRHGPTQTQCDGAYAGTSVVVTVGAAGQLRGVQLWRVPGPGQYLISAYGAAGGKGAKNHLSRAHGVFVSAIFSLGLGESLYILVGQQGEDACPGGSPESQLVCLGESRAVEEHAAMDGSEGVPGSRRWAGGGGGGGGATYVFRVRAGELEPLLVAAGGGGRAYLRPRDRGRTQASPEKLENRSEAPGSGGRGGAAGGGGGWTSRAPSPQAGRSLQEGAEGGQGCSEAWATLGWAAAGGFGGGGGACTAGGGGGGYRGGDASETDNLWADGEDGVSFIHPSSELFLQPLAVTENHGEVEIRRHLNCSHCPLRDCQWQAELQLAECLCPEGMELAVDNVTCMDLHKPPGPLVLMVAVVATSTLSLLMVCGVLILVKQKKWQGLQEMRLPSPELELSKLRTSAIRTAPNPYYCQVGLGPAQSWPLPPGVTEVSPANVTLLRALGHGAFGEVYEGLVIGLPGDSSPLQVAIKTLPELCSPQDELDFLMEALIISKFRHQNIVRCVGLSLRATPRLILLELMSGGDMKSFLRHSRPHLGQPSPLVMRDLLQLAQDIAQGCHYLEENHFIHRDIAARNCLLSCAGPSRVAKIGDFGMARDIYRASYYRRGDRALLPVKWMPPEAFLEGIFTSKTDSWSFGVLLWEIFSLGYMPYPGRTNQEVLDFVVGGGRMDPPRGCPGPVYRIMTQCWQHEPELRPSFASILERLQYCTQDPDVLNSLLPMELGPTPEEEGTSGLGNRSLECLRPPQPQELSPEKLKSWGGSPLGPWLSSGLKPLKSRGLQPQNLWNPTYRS
Cyclin-dependent kinase 19 (Homo sapiens), sequence (Q9BWU1 whole entry): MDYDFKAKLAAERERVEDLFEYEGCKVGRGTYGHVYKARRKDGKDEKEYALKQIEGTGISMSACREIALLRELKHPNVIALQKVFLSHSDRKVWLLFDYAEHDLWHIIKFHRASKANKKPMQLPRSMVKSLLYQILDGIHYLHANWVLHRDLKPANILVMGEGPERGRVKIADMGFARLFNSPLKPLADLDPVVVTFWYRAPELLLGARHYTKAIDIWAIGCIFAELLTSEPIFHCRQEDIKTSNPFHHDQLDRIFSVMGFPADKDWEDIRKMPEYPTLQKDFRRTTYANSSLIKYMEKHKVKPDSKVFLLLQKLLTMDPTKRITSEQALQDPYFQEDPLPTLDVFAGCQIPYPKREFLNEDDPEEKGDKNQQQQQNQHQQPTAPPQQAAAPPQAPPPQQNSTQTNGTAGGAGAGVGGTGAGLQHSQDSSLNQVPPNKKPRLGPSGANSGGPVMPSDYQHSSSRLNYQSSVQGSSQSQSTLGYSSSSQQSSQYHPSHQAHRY
Cyclin-dependent kinase 11A (Homo sapiens), sequence (Q9UQ88 whole entry): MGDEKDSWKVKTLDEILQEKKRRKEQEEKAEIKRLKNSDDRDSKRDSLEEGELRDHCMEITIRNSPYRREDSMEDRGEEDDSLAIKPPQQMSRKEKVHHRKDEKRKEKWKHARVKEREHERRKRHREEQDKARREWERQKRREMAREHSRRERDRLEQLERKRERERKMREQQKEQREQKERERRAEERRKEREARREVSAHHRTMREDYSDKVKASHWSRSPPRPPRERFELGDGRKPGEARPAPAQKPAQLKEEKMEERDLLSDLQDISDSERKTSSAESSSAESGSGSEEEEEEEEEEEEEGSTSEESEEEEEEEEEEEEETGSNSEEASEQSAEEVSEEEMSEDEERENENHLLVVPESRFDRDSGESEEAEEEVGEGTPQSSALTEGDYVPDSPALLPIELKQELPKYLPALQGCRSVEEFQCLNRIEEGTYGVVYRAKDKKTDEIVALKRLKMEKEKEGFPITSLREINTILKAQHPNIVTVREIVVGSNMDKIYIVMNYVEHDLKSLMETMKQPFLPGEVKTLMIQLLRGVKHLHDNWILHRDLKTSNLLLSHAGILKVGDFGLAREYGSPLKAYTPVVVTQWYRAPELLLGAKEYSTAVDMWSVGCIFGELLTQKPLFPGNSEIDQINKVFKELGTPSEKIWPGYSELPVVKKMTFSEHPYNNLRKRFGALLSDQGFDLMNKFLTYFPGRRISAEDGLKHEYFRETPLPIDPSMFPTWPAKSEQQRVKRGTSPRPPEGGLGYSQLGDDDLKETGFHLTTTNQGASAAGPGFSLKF
cGMP-dependent protein kinase 2 (Homo sapiens), sequence (Q13237 whole entry): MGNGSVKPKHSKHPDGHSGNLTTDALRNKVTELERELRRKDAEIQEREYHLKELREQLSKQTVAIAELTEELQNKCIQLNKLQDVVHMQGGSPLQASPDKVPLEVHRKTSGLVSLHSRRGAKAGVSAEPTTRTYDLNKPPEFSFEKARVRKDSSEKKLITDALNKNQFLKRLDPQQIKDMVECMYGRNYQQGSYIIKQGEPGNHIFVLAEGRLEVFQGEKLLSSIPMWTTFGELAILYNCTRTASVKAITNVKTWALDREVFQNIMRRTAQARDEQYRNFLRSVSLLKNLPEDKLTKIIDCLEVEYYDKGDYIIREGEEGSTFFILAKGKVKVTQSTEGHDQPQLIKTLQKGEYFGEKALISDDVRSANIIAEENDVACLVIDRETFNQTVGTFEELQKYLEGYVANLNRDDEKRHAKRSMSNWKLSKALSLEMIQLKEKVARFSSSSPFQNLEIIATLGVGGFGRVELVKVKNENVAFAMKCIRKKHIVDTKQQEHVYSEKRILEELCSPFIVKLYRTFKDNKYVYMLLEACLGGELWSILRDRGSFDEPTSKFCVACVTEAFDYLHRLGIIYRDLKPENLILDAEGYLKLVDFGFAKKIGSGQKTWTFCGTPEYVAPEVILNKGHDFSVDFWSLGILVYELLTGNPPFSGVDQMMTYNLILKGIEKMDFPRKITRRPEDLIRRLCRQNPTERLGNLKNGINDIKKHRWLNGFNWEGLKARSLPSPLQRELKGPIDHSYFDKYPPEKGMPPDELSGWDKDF
Mitogen-activated protein kinase 3 (Homo sapiens), sequence (P27361 whole entry): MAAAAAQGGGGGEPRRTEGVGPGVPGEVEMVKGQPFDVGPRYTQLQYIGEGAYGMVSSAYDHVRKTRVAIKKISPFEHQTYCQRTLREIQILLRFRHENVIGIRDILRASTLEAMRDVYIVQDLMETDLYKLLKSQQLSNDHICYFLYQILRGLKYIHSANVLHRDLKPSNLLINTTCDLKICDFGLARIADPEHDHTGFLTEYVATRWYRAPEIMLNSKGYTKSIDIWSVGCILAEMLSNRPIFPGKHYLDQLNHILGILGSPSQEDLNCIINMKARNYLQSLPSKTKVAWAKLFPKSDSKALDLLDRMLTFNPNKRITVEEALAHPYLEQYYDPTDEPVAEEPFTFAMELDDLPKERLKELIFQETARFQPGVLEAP
Casein kinase II subunit alpha' (Homo sapiens), sequence (P19784 whole entry, looked up): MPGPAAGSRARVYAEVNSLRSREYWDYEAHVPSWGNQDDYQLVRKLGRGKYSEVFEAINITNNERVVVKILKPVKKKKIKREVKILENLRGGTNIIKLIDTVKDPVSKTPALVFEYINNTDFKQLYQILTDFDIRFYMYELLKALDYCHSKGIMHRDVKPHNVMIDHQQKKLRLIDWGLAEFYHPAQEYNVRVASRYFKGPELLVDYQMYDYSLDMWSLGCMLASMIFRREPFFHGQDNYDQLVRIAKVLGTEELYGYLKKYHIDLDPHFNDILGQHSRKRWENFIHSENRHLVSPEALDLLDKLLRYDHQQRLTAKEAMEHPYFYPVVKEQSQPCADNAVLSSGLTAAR

Q: For `Cc1ccc2c(Nc3ccc(Cl)cc3)nccc2c1Nc1ncccc1-c1ncnc2[nH]cnc12.Cl.Cl.Cl`, which Activity [1] is on record?
A: 20%

Q: And the Activity [2]?
A: 33%

Q: And the Activity [3]?
A: 100%

Q: What about the Activity [4] of the same compound?
A: 100%

Q: And the Activity [5]?
A: 92%

Q: And the Activity [6]?
A: 100%

Q: And the Activity [7]?
A: 100%

Q: What about the Activity [8] of the same compound?
A: 100%

Q: What about the Activity [9] of the same compound?
A: 100%

Q: And the AUC at 24 h [10]?
A: 2730 ng·h/mL

Q: What about the Activity [11] of the same compound?
A: 21%
